Test results from patent US20260085034A1, “N-(BENZHYDRYL)CYCLOALKYLCARBOXAMIDE DERIVATIVES AS INHIBITORS OF GLYCOGEN SYNTHASE 1 (GYS1) AND METHODS OF USE THEREOF” (Maze Therapeutics, Inc., priority 2022, published 2026).

System: glycogen synthesis in HeLa cells (hGYS1)
Assay: GYS1 cell based assay (glycogen digestion, Glucose-glo)
Details: Homo sapiens, 24 h incubation, 20 mM glucose, geometric mean of at least 2 runs, read-out: Cellular IC50
From the text: The GYS1 cell based assay is a bioluminescent assay that quantifies the glucose resulting from glycogen digestion; the quantified glucose is an indirect measure of GYS1 glycogen synthesis. Newly synthesized glycogen is digested using Glucoamylase; the resulting glucose is quantified by using the Glucose-glo assay kit from Promega. Glucose-glo works by coupling glucose oxidation and NADH production with a bioluminescent system that is activated with NADH. Glucose is oxidized by Glucose dehydrogenase and the reaction reduces NAD+ to NADH; NADH activates Reductase which reduces a pro-luciferin Reductase Substrate to luciferin. Luciferin is detected in a luciferase reaction using Ultra-Glo rLuciferase and ATP, and the luminesce produced is proportional to the glucose in the sample. The luminescence is measured as a single point read in a plate reader.
Compounds that inhibit the hGYS1 enzyme and, subsequently, the glycogen synthesis in cells, were tested using assay ready plates (white, clear bottom 384 well plates) in a final DMSO reaction volume of 1% DMSO. Compounds in the assay ready plates were mixed with media with no additives, except for 20 mM glucose prior to cell addition. HeLa cells were starved in media with no additives, except for 1× Glutamax for 24 h. Starved HeLa cells were plated, in a 1:1 ratio to the media in the assay ready plate and incubated for 24 h at 37° C. and 5% CO2. Cells were washed in 1×PBS buffer and lysed in lysis buffer containing 50% 1×PBS and 25% 0.3 N HCl of the final volume in the well or reaction volume; cells were incubated with lysis buffer for 10 minutes and quenched with the remaining 25% of the reaction volume that consisted of 450 mM Tris pH 8.0. Lysates were mixed in a 1:1 ratio with Glucoamylase in 100 mM Sodium Acetate buffer, pH 5.3; the mixture was incubated for 1 h at 37° C. The digested lysate was mixed in a 1:1 ratio with Glucose-glo detection mixture as per vendor recommendations (Luciferase detection buffer, Reductase, Reductase substrate, Glucose dehydrogenase, and NAD) in read-out plates (solid white 384-well plates) and incubated for 1 h at RT. The plates were read using a plate reader with luminescence capabilities. Each compound concentration Relative Luminescence Unit (RLU) was averaged and normalized to the average RLU of the positive and negative controls to obtain a percentage inhibition. The normalized data vs. concentration was plotted; to determine the half-maximal concentration (IC50), the Levenberg-Marquardt algorithm was used to fit a Hill equation to the dose response data.
The results are shown in Table 4 below, which reports the IC50 of each compound. Unless otherwise specified, IC50 values are reported as the geometric mean of at least 2 assay runs on separate days. As shown in the table below, the compounds of the present invention are potent inhibitors of human GYS1. […] Each run represents the average of a technical replicate, where each compound was assayed twice in the same plate.

CC(C)c1ccc([C@@H](NC(=O)[C@H]2C[C@@H]2F)c2ccn[nH]2)cc1F (single isomer, unassigned) [compound 11]
IC50: 3.28 µM
